# Values quoted from earlier work as cited in patent US20160114057A1, “MODULAR PROTEIN DRUG CONJUGATE THERAPEUTIC” (ZYMEWORKS INC., priority 2013, published 2016).
# “And” between values parts separate entries of the source, which are not always exact repeats. Equal entries are not always repeated. Where two headings read alike, the source gives them in different places. *1 amine or outer side, *2 acyl side, *3 side chain or, on linkers, in order; H or OH if unused. Where a SMILES comes first, the peptide text is derived from it. Bridges are numbered along the chain shown (N, C = ends). [ ]: non-standard residue; d: D form. The star is where a group is joined. X2 = CC[C@@H](C)C[C@H](N[*:1])C(=O)[*:2]; X1 = CC[C@H](C)CC(N[*:1])C(=O)[*:2]; d(aThr) = C[C@@H](O)[C@@H](N)C(=O)O; NMe2Val = CC(C)[C@@H](C(=O)*)N(C)C; NMeT = CN[C@H](C(=O)O)[C@@H](C)O; Suc = O=C(CCC(=O)[*:2])[*:1]; NMeV = CN[C@H](C(=O)O)C(C)C; NHBn = c1ccc(CN*)cc1; Dha = C=C(N)C(=O)O
# Assays:
# [1] = human, in vivo
# [2] = in vivo
# [3] = tested on: NCI tumor panel (60 cell line); settings: for IC50: range over cell lines
# [4] = KB-31 (melanoma)
# [5] = not given; remark: listed apart in the source
molecule,measurement,setting,value
CC/C=C\C=C/C(=O)N/C=C/CC1CC2CC(O)CC(Cc3cccc(O)c3C(=O)O1)O2 (stereo not shown) [Apicularen A],IC50,various tumor cell lines,IC50's of 0.1 to 3 ng/mL
COc1ccc(C[C@H]2NC(=O)/C=C/C[C@@H]([C@H](C)[C@H]3O[C@@H]3c3ccccc3)OC(=O)[C@H](CC(C)C)OC(=O)CCNC2=O)cc1 [Arenastatin A analogs],Activity (IC50),KB; KB (nasopharyngeal),0.005 ng/mL
same,IC50,"KB; KB, read-out: Activity (IC50)",8.7 nM
C/C(=C\c1csc(C)n1)[C@@H]1C[C@@H]2O[C@]2(C)CCC[C@H](C)[C@H](O)[C@@H](C)C(=O)C(C)(C)[C@@H](O)CC(=O)N1 [BMS-247550],clinical responses (in words),[1],tumor (objective
same,Toxicity (in words),,sever toxicity
C/C(=C\c1csc(CN)n1)[C@@H]1C[C@@H]2O[C@]2(C)CCC[C@H](C)[C@H](O)[C@@H](C)C(=O)C(C)(C)[C@@H](O)CC(=O)O1 [BMS-310705],IC50,"various tumor cell lines; broad activity, read-out: IC50",0.7 to 10 nM
same,Toxicity (in words),in vivo,adverse events
same,t1/2,[2],3.5 hrs; improved
CC(C)[C@H](NC(=O)[C@H](C(C)C)N(C)C)C(=O)N(C)[C@H](C(=O)N1CCC[C@H]1C(=O)N1CCC[C@H]1C(=O)NCc1ccccc1)C(C)C [Cemadotin] (NMe2Val-V[NMeV]PP-NHBn),activity in NCI tumor panel (in words),[3],"active in breast,"
same,Toxicity (in words),,"hypertension,"
COc1ccc(C[C@H]2NC(=O)/C=C/C[C@@H]([C@H](C)[C@@H](O)[C@@H](Cl)c3ccccc3)OC(=O)[C@H](CC(C)C)OC(=O)[C@H](C)CNC2=O)cc1Cl [Cryptophycin 8],activity in cell culture (in words),various tumor cell lines,broad spectrum
"COc1ccc(C[C@H]2NC(=O)/C=C/C[C@@H]([C@H](C)[C@H]3O[C@@H]3c3ccccc3)OC(=O)[C@H](CC(C)C)OC(=O)C(C)(C)CNC2=O)cc1Cl [Cryptophycin analogs (including 52, 55 and others)]",IC50,"various tumor cell lines; broad activity (lung, breast, colon, leukemia), read-out: IC50",0.002 to 0.04 nM
same,activity against multi-drug/drug resistant cell lines (in words),MDR cell lines,pM; active against
C=CC[C@@H](CC/C(C)=C/C=C/CC/C=C\[C@@H]1CSC([C@@H]2C[C@@H]2C)=N1)OC [Curacin A and analogs],IC50,"various tumor cell lines; broad activity (cancer cell lines), read-out: Activity (IC50)",1 to 29 nM
CC[C@H](C)[C@@H]([C@@H](CC(=O)N1CCC[C@H]1[C@H](OC)[C@@H](C)C(=O)N[C@@H](Cc1ccccc1)c1nccs1)OC)N(C)C(=O)[C@@H](NC(=O)[C@H](C(C)C)N(C)C)C(C)C [Dolastatin-10],concentration with myelotoxicity,in vivo,greater than 0.3 pM)
CO[C@]12C=C[C@](C)(O1)[C@@H](OC(=O)/C=C/c1cn(C)cn1)C[C@H]1C(C)=CC[C@H](C(C)C)[C@H]1/C=C\2CO[C@@H]1OC[C@@H](O)[C@@H](O)[C@@H]1OC(C)=O [Eleutherobins],activity against multi-drug/drug resistant cell lines (in words),MDR cell lines,taxol; not effective
C/C(=C\c1csc(C)n1)[C@@H]1C[C@@H]2O[C@@H]2CCC[C@H](C)[C@H](O)[C@@H](C)C(=O)C(C)(C)[C@@H](O)CC(=O)O1 [Epothilone A],IC50,MCF-7 (breast),1.5 nM
same,IC50,MCF-7/ADR,27.1 nM
same,IC50,[4],2.1 nM
same,IC50,HCT-116,3.2 nM
C/C(=C\c1csc(C)n1)[C@@H]1C[C@@H]2O[C@]2(C)CCC[C@H](C)[C@H](O)[C@@H](C)C(=O)C(C)(C)[C@@H](O)CC(=O)O1 [Epothione B],IC50,MCF-7 (breast),0.18 nM
same,IC50,MCF-7/ADR,2.92 nM
same,IC50,[4],0.19 nM
same,IC50,HCT-116,0.42 nM
same,activity in cell culture (in words),various tumor cell lines,broad activity
same,clinical responses (in words),[1],partial
same,t1/2,[2],2.5 h
CN[C@H](C(=O)N[C@H](C(=O)N(C)[C@H](/C=C(\C)C(=O)O)C(C)C)C(C)(C)C)C(C)(C)c1c[nH]c2ccccc12 [Hemiasterlins A & B and analogs],IC50,P388,0.4 ng/mL P388
same,IC50,MCF-7 (breast),0.3 to 3 nM
CCCC1(O)C(O)C(C)C/C=C/C=C/C(CC(C)O)CCC2OC3(CCC(C)C(C(C)C(O)CC)O3)C(C)C(OC(=O)/C=C/C(C)C(O)C(C)C(O)C(OC3CCC(O)C(C)O3)C(O)C(O)C1O)C2C (stereo not shown) [IB-96212],IC50,P388,0.1 P388 ng/mL
C=C1C[C@@H]2CCO[C@H]3[C@@H]4O[C@H]5CC[C@H](CC(=O)O[C@@H]6[C@@H](C)[C@@H]7O[C@@H]8C[C@]9(C[C@@H]%10O[C@]%11(C[C@H](C)[C@@H]%12O[C@H](CC(=O)CCO)[C@H](O)C[C@@H]%12O%11)C[C@H](C)[C@@H]%10O9)O[C@@H]8C[C@@H]7O[C@H]6C[C@H]6O[C@@H](CC[C@@H]1O2)C[C@@H](C)C6=C)O[C@@H]5[C@@H]1OCC[C@H]3O[C@@H]14 [Isohomo-halichondrin B],IC50,[3]; NCI tumor panel,~0.1 nM
COc1cc2cc(c1Cl)N(C)C(=O)C[C@H](OC(=O)[C@H](C)N(C)C(C)=O)[C@]1(C)O[C@H]1[C@H](C)[C@@H]1C[C@@](O)(NC(=O)O1)[C@H](OC)/C=C/C=C(\C)C2 [Maytansine],Toxicity (in words),,severe toxicity
CCCCCCCCCCCCCCCC(=O)OC1CC(C(C)C(OC)/C(C)=C/C=C/C(C)=C/c2coc(C)n2)OC(=O)C2OC2CC2CC(=O)OC(C2)C(C)/C=C/C2OC21C (stereo not shown) [Palmitoylrhizoxin],Toxicity (in words),,binds LDL; less
C=C(C)[C@@H]1NC(=O)[C@@H](NC)[C@@H](O)c2cc(Cl)c(O)c(c2)O[C@](C)(CC)[C@@H](C(=O)N2CC=C[C@H]2C(=O)N/C(C(=O)N/C(=C/C(=O)O)C(=O)O)=C(\C)CC)NC1=O [Phomopsin A],activity in cell culture (in words),various tumor cell lines,potent anticancer
C=C1C[C@@H]2C[C@@H]3C[C@@H](O)C[C@@H](O3)c3coc(n3)/C=C/C[C@H]3O[C@@H](/C(C)=C/c4coc(C[C@]5(O)CC(OC)C[C@H]([C@H](O)/C=C(C)/C=C/C(C/C=C/Br)OC)O5)n4)[C@H](C)[C@@H](OC(=O)/C=C\C[C@@H](C1)O2)[C@H]3C (stereo partly shown) [Phorboxazole A],IC50,[3]; NCI tumor panel,1 to 10 nM
COc1cc([C@@H]2c3cc4c(cc3[C@H](O)[C@H]3COC(=O)[C@H]23)OCO4)cc(OC)c1OC [Podophyllotoxin],activity in cell culture (in words),various tumor cell lines,in μM range
CO[C@@H](/C(C)=C/C=C/C(C)=C/c1coc(C)n1)[C@@H](C)[C@@H]1C[C@H](O)[C@@]2(C)O[C@@H]2/C=C/[C@@H](C)[C@H]2C[C@H](CC(=O)O2)C[C@H]2O[C@H]2C(=O)O1 [Rhizoxin],Toxicity (in words),,Rapid Drug
C=C(Cl)/C=C/[C@@H](O)CC(=C)C[C@H]1O[C@@H]2[C@H](C)[C@@H](OC(=O)C[C@@H]3C[C@H](OC(C)=O)C[C@@]4(C[C@@](C)(O)C[C@H](CC(=C)[C@@H](C)C(OC(C)=O)[C@H](C)C(=O)C[C@@H]5C[C@H](OC)C[C@@]6(C[C@@H](O)C[C@H](/C=C\CCC[C@H]7O[C@](O)(C[C@H](O)[C@H]7C)[C@H]2O)O6)O5)O4)O3)[C@@H]1O (stereo partly shown) [Spongistatin-1],GI50,"[3]; NCI tumor panel, values or ends of the range over cell lines, read-out: GI50",≥ 0.025 nM and ≤ 0.035 nM
C=C(Cl)/C=C/[C@@H](O)CC(=C)C[C@H]1O[C@@H]2[C@H](C)[C@@H](OC(=O)C[C@@H]3C[C@H](OC(C)=O)C[C@@]4(C[C@@](C)(O)C[C@H](CC(=C)[C@@H](C)C(OC(C)=O)[C@H](C)C(=O)C[C@@H]5C[C@H](OC)C[C@@]6(C[C@@H](O)C[C@H](/C=C\CCC[C@H]7O[C@](O)(C[C@H](O)[C@H]7C)[C@H]2O)O6)O5)O4)O3)[C@@H]1O (stereo partly shown) [Spongistatins (1-9)],activity in NCI tumor panel (in words),[3],Most potent
same,GI50,"[3]; NCI panel cell line, read-out: mean GI50",0.1 nM
CC(=O)O[C@H]1C(=O)[C@@]2(C)[C@H]([C@H](OC(=O)c3ccccc3)[C@]3(O)C[C@H](OC(=O)[C@H](O)[C@@H](NC(=O)c4ccccc4)c4ccccc4)C(C)=C1C3(C)C)[C@]1(OC(C)=O)CO[C@@H]1C[C@@H]2O [Taxol],Toxicity (in words),in vivo,severe toxicity
C=C1NC(=O)[C@H]([C@@H](C)CC)NC(=O)[C@@H]2CSSC[C@H](NC(=O)CCC(=O)O)C(=O)N[C@H](Cc3ccccc3)C(=O)N[C@H](C)C(=O)NC(C[C@@H](C)CC)C(=O)N[C@@H](C(=O)N[C@H](Cc3ccccc3)C(=O)N3CCC[C@H]3C(=O)N2)[C@@H](C)OC(=O)[C@H](CO)NC(=O)[C@H]([C@@H](C)OC)N(C)C(=O)[C@@H](C(C)C)NC(=O)[C@H](C[C@H](C)CC)NC1=O (stereo partly shown) [Vitilevuamide] (Suc-C[dF][dA][X1][d(aThr)][dF]PCI[Dha][X2][dV][NMeT](Me)S; disulfide 1-8; ester 5-C),IC50,"various tumor cell lines; panel of tumor cell lines HCT116, A549, SK-MEL-5, A498 cells, read-out: IC50",6 to 311 nM
CCCC1C(=O)O[C@H](/C(C)=C/c2csc(C)n2)C[C@@H]2O[C@]2(C)CCC[C@H](C)[C@H](O)[C@@H](C)C(=O)C(C)(C)[C@H]1O (stereo partly shown) [ZK-EPO],activity against multi-drug/drug resistant cell lines (in words),MDR cell lines,active in drug
CC[C@H](C)[C@@H]([C@@H](CC(=O)N1CCC[C@H]1[C@H](OC)[C@@H](C)C(=O)NCCc1ccccc1)OC)N(C)C(=O)[C@@H](NC(=O)[C@H](C(C)C)N(C)C)C(C)C [soblidotin],inhibition,"various tumor cell lines; cell culture: colon, melanoma, M5076 tumors, P388, dose not reported",75-85% inhibition
same,MTD,[5]; IV,MTD was 1.8 mg/Kg
Didemnin B,activity against multi-drug/drug resistant cell lines (in words),MDR cell lines,Not potent against
same,Toxicity (in words),,cardiotoxicity;
same,MTD,[5]; in vivo,6.3 mg/Kg; toxicity
same,t1/2,[2],cleared (t1/2 4.8 hrs
Epothilone D,IC50,[4],0.19 nM
same,IC50,HCT-116,0.42 nM
same,activity in cell culture (in words),various tumor cell lines,broad activity
same,Toxicity (in words),,emesis and anemia;
same,t1/2,[2],t1/2 of 5-10 hrs.
Halichondrin B,Toxicity (in words),in vivo,myelotoxicity dose
